Measurements as given in PubChem BioAssay (NCI).
Several values for one entry are separate records, joined by “and”; a condition that tells them apart may be missing. Equal values may be shown once.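 Five compound concentrations were applied to cells in 96-well plates for 48 hours; endpoints were derived by simple linear interpolation of the resulting dose-response curve. Abbreviation: GI50, concentration required for 50% inhibition of growth. TGI denotes the concentration required for complete inhibition of growth.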

Tests used:
Test in all cases: NCI tumour cell line growth inhibition, 48 h
SF-268 CNS = system: SF-268 CNS
M19-MEL melanoma = system: M19-MEL melanoma
EKVX NSCLC = system: EKVX NSCLC
SNB-19 CNS = system: SNB-19 CNS
HCT-116 colon = system: HCT-116 colon
XF 498 CNS = system: XF 498 CNS
NCI-H23 lung = system: NCI-H23 lung
A498 renal = system: A498 renal
NCI/ADR-RES ovarian = system: NCI/ADR-RES ovarian
SNB-78 CNS = system: SNB-78 CNS
IGROV1 ovarian = system: IGROV1 ovarian

Structure (SMILES)	TGI (SF-268 CNS) [µM]	TGI (M19-MEL melanoma) [µM]	TGI (EKVX NSCLC) [µM]	TGI (SNB-19 CNS)	TGI (HCT-116 colon)	TGI (XF 498 CNS) [µM]	TGI (NCI-H23 lung)	TGI (A498 renal) [µM]	TGI (NCI/ADR-RES ovarian) [µM]	TGI (SNB-78 CNS) [µM]	TGI (IGROV1 ovarian)	GI50 (SF-268 CNS) [µM]	GI50 (EKVX NSCLC) [µM]	GI50 (SNB-19 CNS) [µM]	GI50 (HCT-116 colon)	GI50 (NCI-H23 lung) [µM]	GI50 (A498 renal) [µM]	GI50 (IGROV1 ovarian) [µM]	GI50 (NCI/ADR-RES ovarian) [µM]
N#C/C(=C\c1ccc2[nH]ccc2c1)C(=O)NCCCCNC(=O)/C(C#N)=C/c1ccc2[nH]ccc2c1	> 31.6	> 100	> 31.6	> 31.6 µM	> 31.6 µM	> 100	> 31.6 µM	> 31.6	> 10	> 100	> 31.6 µM								
[N-]=[N+]=CC(=O)CCC(N)C(=O)O (configuration not stated)	190	> 138	> 141	> 250 µM	> 250 µM	230	> 215 µM	> 250	> 245	> 74.4	43 µM and > 134 µM	1.65	3.47	10.1	0.457 µM and 0.955 µM	6.94	7.72	3.51	
C[C@@H]1C[C@@H]([C@H](O)CC2CC(=O)NC(=O)C2)C(=O)[C@@H](C)C1	1.94	3.48	4.45	15.8 µM and > 94.6 µM	4.35 µM and 1.42 µM	0.504	4.78 µM and 0.941 µM		9.16	11.1	15 µM and 3.15 µM	0.264	0.341	0.282	0.197 µM	0.274	0.854	0.388	0.358
c1ccc2c(c1)[nH]c1c2nc2ccccn21	> 100	> 100	> 100	> 100 µM	> 100 µM	> 100	> 100 µM	> 100		> 100	> 100 µM								
Cc1c(C)c([N+](=O)[O-])c2c(c1N)C(=O)c1ccccc1C2=O	> 100	> 100	> 100	> 100 µM	> 100 µM	> 100	> 100 µM	> 100		> 100	> 100 µM								
Cc1cccc(C)c1NC(=O)C(=O)Cc1nc2ccccc2s1	> 100	> 100	> 100	> 100 µM	> 100 µM	> 100	> 100 µM	> 100		> 100	> 100 µM								
